Reference: PubChem BioAssay AID1963445 (Molecular Pharmacology Branch, DTP, NCI, 2024)
Values joined by “and” are separate entries in the source; they are usually repeats but may differ in a detail not shown here. Equal entries are not always repeated.

Test system: MCF7 complex spheroid growth, % test/control
Assay: Anticancer human tumor MCF7 cell line growth inhibition [Asc];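 further: spheroids exposed to compounds for 7 days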;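 on viability, T/C: 100% = DMSO vehicle control wells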
Settings: for viability, T/C: stronger effect = lower value
Method: Multicellular complex tumor spheroid response to apoptosis pathway targeting inhibitors Alrizomadlin, Pelcitoclax, and Dasminapant in combination with a variety of drugs and investigational agents in selected tumor cell lines
The MDM2 inhibitor alrizomadlin, the Bcl-2/Bcl-xL inhibitor pelcitoclax, and the IAPs inhibitor dasminapant were evaluated both individually and in combination with standard of care and investigational anticancer small molecules within a complex spheroid model of solid tumors. . Complex spheroids include a stromal component modeled by human endothelial cells (HUVEC) and fibroblasts modeled by human mesenchymal stem cells (MSCs). The concentration ranges selected for each drug and investigational agent were based upon clinically achievable concentrations if the clinical Cmax of the agent was known.
Compounds. The drugs and investigational agents: alrizomadlin (APG-115; NSC831270), pelcitoclax (APG-1252; NSC835773), dasminapant (APG-1387;NSC834197), TAK-243 (NSC785004), copanlisib (NSC809693), olaparib (NSC753686), talazoparib (NSC767125), cobimetinib (NSC 768068), eltanexor (KPT-8602, NSC 794443), abemaciclib (NSC 768073), sotorasib (NSC818433), adagrasib (NSC 831453), MRTX-1133 (NSC 836407), Iadademestat (ORY1001, NSC 806812), and RMC-4630 (NSC839698), were obtained from the NCI Developmental Therapeutics Program Chemical Repository. The FDA-approved anticancer drug set is available from the Developmental Therapeutics Program at https://dtp.cancer.gov/organization/dscb/obtaining/available plates.htm. […] The stock solutions were prepared in dimethyl sulfoxide (DMSO, Sigma-Aldrich, St. Louis, MO, cat. D2650) at 800-fold the tested concentration and stored at -70 degrees C prior to their use. All drugs and investigational agents were tested over a range starting from a high concentration at or near the clinical Cmax and decreasing in half-log increments. If the clinical Cmax for an agent had not been determined, the highest concentration tested was 10 microM.
The patient-derived cancer (PDC) cell lines include five colon adenocarcinomas: 186277-243-T-J2-PDC, 616215-338-R-J1-PDC, 439559-082-T-J2-PDC, 463943-066-T-J2-PDC, and 519858-162-T-J1-PDC; three pancreatic carcinomas: 323965-272-R-J2-PDC, 521955-158-R6-J3-PDC, and 521955-158-R2-J5-PDC; two uterine sarcomas: 327498-152-R-J2-PDC and 993429-296-R-J1-PDC; two rhabdomyosarcomas: 755483-174-R-J1-PDC and 772245-204-R-J1-PDC; two soft tissue sarcomas: 126254-015-R-J1-PDC and 494315-158-R-J1-PDC; two malignant fibrous histiocytomas: 317291-083-R-J1-PDC and 596521-263-R-J1-PDC; two breast carcinomas: 171881-019-R-J1-PDC and 885512-296-R-J2-PDC; and one ovarian carcinoma: 6556581-035-R-J-PDC were obtained from the NCI PDMR, (https://pdmr.cancer.gov). The established cell lines HSSY-2 synovial sarcoma (RRID:CVCL 8719), SYO-1 synovial sarcoma (RRID:CVCL_7146), MPNST malignant peripheral neural sheath tumor were obtained from the Sloan Kettering Institute. The following established cell lines were purchased from the American Type Culture Collection (ATCC, Manassas, VA), Sor the received from the NCI repository:, PANC-1 pancreatic carcinoma (CRL-1469, RRID:CVCL_0480), OVCAR-5 ovarian carcinoma (RRID:CVCL_1628), OVCAR-8 ovarian carcinoma (RRID:CVCL_1629), , MCF-7 breast carcinoma (CRL-12584, RRID:CVCL_0031), MDA-MB-231 breast carcinoma (CRL-12532, RRID:CVCL_0062), NCI-H1876 small cell lung carcinoma (CRL-5902, RRID:CVCL_1503), NCI-H510A small cell lung carcinoma (HTB-184, RRID:CVCL_1565), NCI-H1417 (CRL-5869, RRID:CVCL_1469), and NCI-H196 small cell lung carcinoma (CRL-5823, RRID:CVCL_1509). Dr. Peter Houghton (Greehey Children's Cancer Research Institute, University of Texas Health Science Center, San Antonio, TX) provided Rh-18 rhabdomyosarcoma (RRID:CVCL_1659). Pooled donor human umbilical vein endothelial cells (HUVEC, Lonza, cat. CC-2519) and human mesenchymal stem cells (hMSC, Lonza, cat. PT-2501) were purchased from Lonza (Walkersville, MD).
Cell Culture. […]

[1] = compound alone, run of 11/07/2022

With C#Cc1c(F)ccc2cc(O)cc(-c3ncc4c(N5CC6CCC(C5)N6)nc(OCC56CCCN5CC(F)C6)nc4c3F)c12 (centres undefined) the viability, T/C (compound 0.0316 µM) was 97% and 87.3% and 92.6%, the viability, T/C (compound 0.1 µM) was 102% and 115% and 97.1% and the viability, T/C (compound 0.316 µM) was 94.8% and 96.2% and 101%. For the same compound, the viability, T/C (compound 1 µM) was 103% and 97.7% and 108%, the viability, T/C (compound 3.16 µM) was 90.2% and 99% and 101% and the viability, T/C (compound 10 µM) was 87.2% and 87.3% and 87.7%. For the same compound, the IC50 (curve of compound) was > 10000 nM.

C=C(F)C(=O)N1CCN(c2nc(OCC3CCCN3C)nc3c2CCN(c2cccc4cccc(Cl)c24)C3)CC1CC#N (centres undefined) was tested, and the viability, T/C (compound 0.0316 µM) was 82.4% and 98.6% and 109%, the viability, T/C (compound 0.1 µM) was 92.8% and 99.8% and 107% and the viability, T/C (compound 0.316 µM) was 90.7% and 97.9% and 95.7%. The viability, T/C (compound 1 µM) was 75.4% and 92.3% and 89.9%, the viability, T/C (compound 3.16 µM) was 31% and 80% and 72.3% and the viability, T/C (compound 10 µM) was 0.38% and 0.28% and 0.27%. The IC50 (curve of compound) was 1940 nM and 4850 nM and 4360 nM.

C=CC(=O)N1CCN(c2nc(=O)n(-c3c(C)ccnc3C(C)C)c3nc(-c4c(O)cccc4F)c(F)cc23)C(C)C1 (centres undefined) was tested, and the viability, T/C (compound 0.0316 µM) was 92.7% and 99.7% and 107%, the viability, T/C (compound 0.1 µM) was 90.9% and 101% and 93.8% and the viability, T/C (compound 0.316 µM) was 85.3% and 99.8% and 90.6%. The viability, T/C (compound 1 µM) was 91.7% and 121% and 102%, the viability, T/C (compound 3.16 µM) was 81.7% and 103% and 114% and the viability, T/C (compound 10 µM) was 75% and 76.2% and 103%. For the same compound, the IC50 (curve of compound) was > 10000 nM.

With CCN1C(C(=O)NC23CCC(C(=O)O)(CC2)CC3)C(c2cccc(Cl)c2F)C2(C(=O)Nc3cc(Cl)ccc32)C12CCCCC2 (centres undefined) the viability, T/C (compound 0.00949 µM) was 102% [middle of 9 runs], the viability, T/C (compound 0.0949 µM) was 48.1% [middle of 9 runs] and the viability, T/C (compound 0.3 µM) was 33.8% [middle of 9 runs]. For the same compound, the viability, T/C (compound 0.949 µM) was 23.2% [middle of 9 runs], the viability, T/C (compound 3 µM) was 15.6% [middle of 9 runs] and the IC50 [1] was 94.5 nM [middle of 7 runs]. The IC50 (curve of compound) was 70.9 nM and 108 nM.

For CCN1CCN(Cc2ccc(Nc3ncc(F)c(-c4cc(F)c5nc(C)n(C(C)C)c5c4)n3)nc2)CC1, the viability, T/C (compound 0.00316 µM) was 111% and 93.3% and 96.7%, the viability, T/C (compound 0.01 µM) was 95.5% and 104% and 99.9% and the viability, T/C (compound 0.0316 µM) was 103% and 93.3% and 99.2%. The viability, T/C (compound 0.1 µM) was 116% and 96.6% and 91.2%, the viability, T/C (compound 0.316 µM) was 99% and 97% and 81.4% and the viability, T/C (compound 1 µM) was 74.3% and 86.7% and 72.5%. For the same compound, the IC50 (curve of compound) was > 1000 nM.

In the case of CNC(C)C(=O)NC1CN(S(=O)(=O)c2cccc(S(=O)(=O)N3CCC4CCC(C(=O)NC(c5ccccc5)c5ccccc5)N4C(=O)C(NC(=O)C(C)NC)C3)c2)CCC2CCC(C(=O)NC(c3ccccc3)c3ccccc3)N2C1=O (centres undefined), the viability, T/C (compound 0.01 µM) is reported as 14.2% [middle of 9 runs], the viability, T/C (compound 0.0316 µM) is reported as 11.7% [middle of 9 runs] and the viability, T/C (compound 0.1 µM) is reported as 14.7% [middle of 8 runs]. For the same compound, the viability, T/C (compound 0.316 µM) was 13.2% [middle of 9 runs], the viability, T/C (compound 1 µM) was 13.2% [middle of 9 runs] and the IC50 (compound alone, run of 11/15/2022) was < 3.16 nM. The IC50 (curve of compound) was 5.24 nM and 6.67 nM.

With COc1c(OCCCN2CCOCC2)ccc2c3n(c(=NC(=O)c4cnc(N)nc4)nc12)CCN3 the viability, T/C (compound 0.00316 µM) was 79.3% and 87.5% and 83.6%, the viability, T/C (compound 0.01 µM) was 76.8% and 80.8% and 61.1% and the viability, T/C (compound 0.0316 µM) was 56.2% and 55.1% and 46.3%. For the same compound, the viability, T/C (compound 0.1 µM) was 29.5% and 33.3% and 43%, the viability, T/C (compound 0.316 µM) was 12.4% and 14.6% and 17.5% and the viability, T/C (compound 1 µM) was 8.01% and 9.89% and 10%. For the same compound, the IC50 (curve of compound) was 45 nM and 53.6 nM and 22.4 nM.

With Cc1c(S(C)(=O)=O)c(-c2cc(F)cc(N3CCN(c4ccc(NS(=O)(=O)c5ccc(NC(CCN6CCC(C(=O)OCCCP(=O)(O)O)CC6)CSc6ccccc6)c(S(=O)(=O)C(F)(F)F)c5)cc4)CC3)c2)c(-c2ccc(Cl)cc2)n1C(C)C (centres undefined) the viability, T/C (compound 0.0316 µM) was 90.5% [middle of 7 runs], the viability, T/C (compound 10 µM) was 166% [middle of 7 runs] and the IC50 [1] was > 10000 nM.

In the case of Cc1nc(N2CCC3(CC2)COC(C)C3N)c(CO)nc1Sc1ccnc(N)c1Cl (centres undefined), the viability, T/C (compound 0.00949 µM) is reported as 89.4% and 87.6% and 92.8%, the viability, T/C (compound 0.03 µM) is reported as 89.1% and 113% and 107% and the viability, T/C (compound 0.0949 µM) is reported as 86.5% and 90.9% and 95.4%. The viability, T/C (compound 0.3 µM) was 82.5% and 93.3% and 94.7%, the viability, T/C (compound 0.949 µM) was 16.5% and 27% and 73% and the viability, T/C (compound 3 µM) was 11.1% and 14.7% and 16.4%. For the same compound, the IC50 (curve of compound) was 529 nM and 636 nM and 1520 nM.

Cn1ncnc1[C@H]1c2n[nH]c(=O)c3cc(F)cc(c23)N[C@@H]1c1ccc(F)cc1 was tested, and the viability, T/C (compound 0.000316 µM) was 95.7% and 82.9% and 96.4%, the viability, T/C (compound 0.001 µM) was 97.3% and 106% and 99.9% and the viability, T/C (compound 0.00316 µM) was 97.1% and 107% and 101%. The viability, T/C (compound 0.01 µM) was 63.8% and 84.2% and 67.2%, the viability, T/C (compound 0.0316 µM) was 60% and 87.7% and 88.1% and the viability, T/C (compound 0.1 µM) was 48.8% and 84.9% and 75.1%. The IC50 (curve of compound) was > 100 nM.

NC(=O)C(=Cn1cnc(-c2cc(C(F)(F)F)cc(C(F)(F)F)c2)n1)c1cncnc1 was tested, and the viability, T/C (compound 0.000949 µM) was 113% and 86% and 71.3%, the viability, T/C (compound 0.003 µM) was 95.1% and 90% and 67.6% and the viability, T/C (compound 0.00949 µM) was 81.6% and 81.3% and 64.6%. For the same compound, the viability, T/C (compound 0.03 µM) was 83.8% and 96.8% and 60.7%, the viability, T/C (compound 0.0949 µM) was 41.4% and 32.1% and 51.5% and the viability, T/C (compound 0.3 µM) was 16% and 17.7% and 24.4%. The IC50 (curve of compound) was 83.4 nM and 65.8 nM and 94.9 nM.

In the case of NC1CCC(NC2CC2c2ccccc2)CC1 (centres undefined), the viability, T/C (compound 0.000316 µM) is reported as 89.7% and 112% and 107%, the viability, T/C (compound 0.001 µM) is reported as 115% and 132% and 136% and the viability, T/C (compound 0.00316 µM) is reported as 128% and 133% and 125%. For the same compound, the viability, T/C (compound 0.01 µM) was 129% and 106% and 132%, the viability, T/C (compound 0.0316 µM) was 136% and 104% and 108% and the viability, T/C (compound 0.1 µM) was 102% and 147% and 137%. The IC50 (curve of compound) was > 100 nM.

In the case of O=C(c1cc(Cc2n[nH]c(=O)c3ccccc23)ccc1F)N1CCN(C(=O)C2CC2)CC1, the viability, T/C (compound 0.0316 µM) is reported as 104% and 99% and 94.7%, the viability, T/C (compound 0.1 µM) is reported as 90.7% and 89.4% and 111% and the viability, T/C (compound 0.316 µM) is reported as 95.8% and 90.3% and 114%. The viability, T/C (compound 1 µM) was 104% and 121% and 97.4%, the viability, T/C (compound 3.16 µM) was 81.3% and 87.6% and 46.4% and the viability, T/C (compound 10 µM) was 71.4% and 72.6% and 15.8%. For the same compound, the IC50 (curve of compound) was > 10000 nM and 2910 nM.

For O=C(c1ccc(F)c(F)c1Nc1ccc(I)cc1F)N1CC(O)([C@@H]2CCCCN2)C1, the viability, T/C (compound 0.00316 µM) was 104% and 101% and 102%, the viability, T/C (compound 0.01 µM) was 92.1% and 89.8% and 79.8% and the viability, T/C (compound 0.0316 µM) was 100% and 92.2% and 90.3%. For the same compound, the viability, T/C (compound 0.1 µM) was 99% and 111% and 102%, the viability, T/C (compound 0.316 µM) was 91.3% and 97.2% and 97.5% and the viability, T/C (compound 1 µM) was 86.5% and 89.6% and 87.4%. For the same compound, the IC50 (curve of compound) was > 1000 nM.
